Measured values taken from the kinase profiling compilation of Christmann-Franck et al. (2016).

Tested on: SGK1 (human), O00141 [S422D]
Assay: radiometric filter-binding kinase assay, Kinase HotSpot
Conditions: compound 0.5 µM; ATP 10 µM

Sequence of SGK1 (human), O00141 [S422D] (O00141 whole entry S422D, looked up): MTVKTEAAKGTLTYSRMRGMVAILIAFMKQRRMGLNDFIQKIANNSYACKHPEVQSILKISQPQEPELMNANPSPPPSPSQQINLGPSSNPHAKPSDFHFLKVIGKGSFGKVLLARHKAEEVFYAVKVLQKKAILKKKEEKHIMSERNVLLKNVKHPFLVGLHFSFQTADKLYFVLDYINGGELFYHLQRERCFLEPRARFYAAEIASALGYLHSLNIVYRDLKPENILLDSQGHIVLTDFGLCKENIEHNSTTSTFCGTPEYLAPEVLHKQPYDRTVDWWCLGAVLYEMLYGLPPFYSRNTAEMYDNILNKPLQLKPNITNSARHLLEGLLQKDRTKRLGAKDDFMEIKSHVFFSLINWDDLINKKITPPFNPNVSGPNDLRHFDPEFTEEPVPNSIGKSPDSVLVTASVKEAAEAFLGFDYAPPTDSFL

SMILES	residual activity [%]
COc1cc2ncnc(Nc3cccc(Cl)c3)c2cc1OC	91.3
O=C1Cc2c([nH]c3ccc([N+](=O)[O-])cc23)-c2ccccc2N1	96
c1ccc2c(-c3ccncc3)c[nH]c2c1	93.8
O=c1cc(N2CCOCC2)oc2c1ccc1ccccc12	98
CC(C)c1nn(-c2c(Cl)cccc2Cl)c2nc(Cc3ccc(OCCO)cc3)nc(O)c12	118
CC#CC(=O)Nc1cc2c(Nc3ccc(F)c(Cl)c3)ncnc2cn1	95.6
COc1ccc(OC)c2c(=S)c3ccccc3[nH]c12	125
CC(C)(C)c1cc(C=C(C#N)C#N)cc(Br)c1O	95.3
Cc1ccc(S(=O)(=O)/C=C/C#N)cc1	98.7
O=C1NC(=O)C(c2cn(CCCn3ccnc3)c3ccccc23)=C1Nc1ccccc1	74.9
CC(C)[C@H](CO)Nc1nc(Nc2cccc(Cl)c2)c2ncn(C(C)C)c2n1	99.1
Cn1cnc2cc3c(Nc4cccc(Br)c4)ncnc3cc21	115
O=C1NC(=O)c2c1c1c3ccccc3n3c1c1c2c2ccccc2n1C1CCC3O1	23.8
Nc1ccc2ncnc(NCCc3ccc(Oc4ccccc4)cc3)c2c1	104
CCOC(=O)c1c(C)[nH]c(/C=C2\C(=O)Nc3ccccc32)c1C	92
CC[C@@H](CO)Nc1nc(NCc2ccccc2)c2ncn(C(C)C)c2n1	120
CCN(CC)CCNC(=O)c1c(C)[nH]c(/C=C2\C(=O)Nc3ccc(Cl)cc32)c1C	49.6
N#C/C(=C(/N)Sc1ccc(N)cc1)c1ccccc1C(F)(F)F	102
COc1ccc(CNC(=O)Nc2ncc([N+](=O)[O-])s2)cc1	105
CCCNC(=O)Nc1ccc(Oc2ncnc3cc(OC)c(OC)cc23)cc1Cl	96.2

SMILES	residual activity [%]
CO[C@@H]1[C@H](N(C)C(=O)c2ccccc2)C[C@H]2O[C@]1(C)n1c3ccccc3c3c4c(c5c6ccccc6n2c5c31)C(=O)NC4	81.9
CC(C)N(CCC(=O)c1ccc2ccccc2c1)Cc1ccccc1	101
COc1cc2nccc(Oc3ccc(NC(=S)NC(=O)c4ccccc4C)cc3)c2cc1OC	101
Nc1ncnc2c1c(-c1ccc(Oc3ccccc3)cc1)cn2C1CCCC1	103
O=C(c1cc2cc(O)ccc2[nH]1)c1cc2cc(O)ccc2[nH]1	74.2
Oc1ccc(Nc2nc(-c3ccc(Cl)cc3)cs2)cc1	106
CN(C)S(=O)(=O)c1ccc2c(c1)/C(=C/c1cc3c([nH]1)CCCC3)C(=O)N2	105
CCN(CC)C(=O)c1ccc(Nc2nc(OCC3CCCCC3)c3nc[nH]c3n2)cc1	84.7
CSc1nc(-c2ccc(F)cc2)c(-c2ccnc(NC(C)c3ccccc3)c2)[nH]1 (stereo not given)	97.3
COc1cc(Nc2c(C#N)cnc3cc(OCCCN4CCN(C)CC4)c(OC)cc23)c(Cl)cc1Cl	126
O=C1Nc2ccccc2/C1=C1/Nc2ccccc2/C1=N\OCCC(O)CO (stereo not given)	51
N#Cc1c[nH]c2c[nH]/c(=N\Cc3cccnc3)cc2/c1=N\c1ccc(F)c(Cl)c1	93.2
Cc1ccc(Nc2nccc(N(C)c3ccc4c(C)n(C)nc4c3)n2)cc1S(N)(=O)=O	125
Cc1nc2cc3nc(-c4cccs4)cnc3cc2n1C	95.9
CCC(=O)Nc1ccc2ncnc(Nc3cccc(Br)c3)c2c1	84.6
COc1ccc(COc2ccc(Cc3cnc(N)nc3N)cc2OC)cc1	97.9
CCN1/C(=C/C(C)=O)Sc2ccc(OC)cc21	121
O=C(Nc1ccc(Cl)cc1)c1ccccc1NCc1ccncc1	96
O=C1NC(=O)/C(=C/c2ccc3c(c2)OC(F)(F)O3)S1	102
Oc1ccc(-c2nc(-c3ccc(F)cc3)c(-c3ccncc3)[nH]2)cc1	101

SMILES	residual activity [%]
Nc1nc(Nc2ccc(S(N)(=O)=O)cc2)nn1C(=O)c1c(F)cccc1F	93
CC(C)n1cnc2c(Nc3cccc(Cl)c3)nc(NCCO)nc21	115
O=C1NC(=O)C(c2c[nH]c3ccccc23)=C1c1c[nH]c2ccccc12	105
CC[n+]1c(/C=C/N(C)c2ccccc2)n(-c2ccccc2)c2ccc(-c3nc4ccccc4s3)cc21	97.2
Oc1cccc(-c2nc(N3CCOCC3)c3oc4ncccc4c3n2)c1	100
CN([C@@H](Cc1ccc(OS(=O)(=O)c2cccc3cnccc23)cc1)C(=O)N1CCN(c2ccccc2)CC1)S(=O)(=O)c1cccc2cnccc12	105
O=C1c2ccccc2-c2nc3nnnn3nc21	67.2
Cn1sc(=O)n(Cc2ccccc2)c1=O	94
COc1ccc(-c2cnc3c(-c4ccsc4)cnn3c2)cc1	81.8
Nc1cccc(-c2cc3c(Oc4cccc(O)c4)ncnc3[nH]2)c1	101
Cc1[nH]c(/C=C2\C(=O)Nc3ccc(S(=O)(=O)N(C)c4cccc(Cl)c4)cc32)c(C)c1C(=O)N1CCN(C)CC1	103
Cn1c2ccccc2c2c3c(c4c5ccccc5n(CCC#N)c4c21)CNC3=O	79.1
COc1ccc2c(c1)/C(=C/c1cnc[nH]1)C(O)=N2	71.5
CCn1cnc2c(Nc3cccc(Cl)c3)nc(N[C@@H]3CCCC[C@@H]3N)nc21	120
CN(C)CCCn1cc(C2=C(c3c[nH]c4ccccc34)C(=O)NC2=O)c2ccccc21	48.6
NC(=O)c1ccc(N(C(N)=O)c2c(F)cccc2F)nc1-c1ccc(F)cc1F	121
O=C1C(Cl)=C(N2C(=O)CCC2=O)C(=O)c2ccccc21	104
CC(C)[C@H](CO)Nc1nc(Nc2cc(N)cc(Cl)c2)c2ncn(C(C)C)c2n1	93.1

More lines, now with the values ahead:

residual activity [%]	SMILES
93.1	CN(C)c1ccc(/C=C2\C(=O)Nc3ccccc32)cc1
103	COc1cc2ncnc(Nc3ccc(OCc4ccccc4)cc3)c2cc1OC
121	Clc1ccc(Nc2nnc(Cc3ccncc3)c3ccccc23)cc1
100	Fc1ccc(-c2nc3n(c2-c2ccncc2)CCS3)cc1
72.9	CN(C)C[C@H]1CCn2c(c(C3=C(c4cn(C)c5ccccc45)C(=O)NC3=O)c3ccccc32)C1
103	Cc1cc2ncc(-c3ccccc3)nc2cc1C
99.4	CCN(CC)CCCCN1c2ccccc2Oc2ccc(Cl)cc21
111	Cc1ccc(NC(=O)c2ccc(CN3CCN(C)CC3)cc2)cc1Nc1nc(-c2cccnc2)cs1
48.7	Nc1nc(Nc2ccc(S(N)(=O)=O)cc2)nn1C(=S)Nc1c(F)cccc1F
131	COc1cc2ncnc(Nc3ccc(F)c(Cl)c3)c2cc1OCCCN1CCOCC1
94.8	Cn1nc2c3c(cccc31)C(=O)c1ccccc1-2
88.5	COc1cc2ncc(-c3ccccc3)nc2cc1OC
91.2	O=C1NC(=O)C(c2cn(CCCO)c3ncccc23)=C1c1cnccn1
103	O=C(CCCc1ccc(-c2ccccc2F)cc1)Nc1ccc(O)cc1
122	C#Cc1cccc(Nc2ncnc3cc(OCCOC)c(OCCOC)cc23)c1
62.8	CCN(CC)CCNC(=O)c1c(C)[nH]c(/C=C2\C(=O)Nc3ccc(F)cc32)c1C
97.3	CS(=O)c1ccc(-c2nc(-c3ccc(F)cc3)c(-c3ccncc3)[nH]2)cc1 (stereo not given)
94.4	CNc1cc2c(Nc3cccc(Br)c3)ncnc2cn1
103	Cc1cncc2cccc(S(=O)(=O)N3CCCN(C(=O)CN)C[C@H]3C)c12
114	Nc1nnc2[nH]c3ccccc3nc1-2
96.6	O=S(=O)(c1cccc2cnccc12)N1CCCNCC1
93.4	O=C1Nc2ccc(Br)cc2/C1=C\c1cc2c([nH]1)CCCC2
101	CO[C@H]1CC2CC[C@@H](C)[C@@](O)(O2)C(=O)C(=O)N2CCCC[C@H]2C(=O)OC([C@H](C)C[C@@H]2CC[C@@H](O)[C@H](OC)C2)CC(=O)[C@H](C)/C=C(\C)[C@@H](O)[C@@H](OC)C(=O)[C@H](C)C[C@H](C)/C=C/C=C/C=C/1C (stereo not given in full)
128	CS(=O)(=O)CCNCc1ccc(-c2ccc3ncnc(Nc4ccc(OCc5cccc(F)c5)c(Cl)c4)c3c2)o1

residual activity [%]	SMILES
103	N#C/C(=C\c1ccc(O)c(O)c1)C(=O)NCc1ccccc1
97.2	CC(=O)c1ccc(N2CCOCC2)cc1O
95	O=C1NC(=O)/C(=C\c2ccc3nccnc3c2)S1
99.8	COc1cc2ncnc(N3CCN(C(=O)Nc4ccc(Oc5ccccc5)cc4)CC3)c2cc1OC
116	O=C1Nc2ccccc2/C1=C\c1c(Cl)[nH]c2ccccc12
99.3	Cc1nc(-c2ccccc2)c(-c2ccncc2)o1
123	C[C@@H]1CCN(C(=O)CC#N)C[C@@H]1N(C)c1ncnc2[nH]ccc12
90.6	O=c1cc(-c2cccc3c2Sc2ccccc2S3)oc(N2CCOCC2)c1
103	COc1cc2ncnc(Nc3ccc(Oc4ccccc4)cc3)c2cc1OC
103	O=c1cc(N2CCNCC2)oc2c(-c3ccccc3)cccc12
91.5	Nc1ncnc2[nH]nc(Nc3ccc(F)cc3)c12
114	Cc1ccc(NC2=CC(=O)c3sc(C)nc3C2=O)cc1
81.8	CC(=O)O/N=C1\C(=C2\C(=O)Nc3cc(Br)ccc32)Nc2ccccc21
99.9	Nc1n[nH]c2nnc(-c3c(-c4ccccc4)nn4ccccc34)cc12
94.7	COc1ccc(Cl)cc1NC(=O)Nc1cc(C)nc2ccccc12
101	NC(=O)c1cccc(-c2cc(Nc3ccc(OC(F)(F)F)cc3)ncn2)c1
88.4	CCCCc1c(-c2ccc(OC)cc2)[nH]c2nccnc12
97	CCCC(=O)Oc1ccc2[nH]c(C(=O)c3cc4ccccc4[nH]3)cc2c1
103	COc1ccc(S(=O)(=O)N(CCO)c2ccccc2CN(C)C/C=C/c2ccc(Cl)cc2)cc1
69.1	O=C1Nc2ccccc2/C1=C1\Nc2ccccc2\C1=N/O
99	Ic1cccc(CSc2nnc(-c3ccncc3)o2)c1
76.7	O=C(O)/C=C/c1cc(Br)c(Br)c(Br)c1Br
98.7	COc1ccc(C(=O)Nc2sc3c(c2C(N)=O)CCCC3)cc1OC
